Source: PMC6894747 (PLoS Pathogens, 2019)
Read-outs that look alike come from different tables or passages of the source. Each block holds one compound with its values, some of them ahead of it. Positions of bridges follow the written chain, without caps; N, C: chain ends. Residues, ends and D or L forms follow the SMILES beside them.

What was measured:
[1] = test system: HIV-1 IIIB (subtype B, X4); format: cell-based; settings: IIIB (subtype B, X4)
Description: (§2) Briefly, 1×10^5/mL MT-2 or M7 cells were infected with different HIV-1 viruses at 100 TCID50 (50% tissue culture infective dose) in the presence or absence of peptides at graded concentrations overnight. Then the culture supernatants were replaced with equal volume of fresh medium. On the fourth day post-infection, supernatants were collected and mixed with equal volume of 5% Triton X-100. […] The IC50 values were calculated with CalcuSyn software [35–36], and inhibition curves of best fit were generated with GraphPad Prism.

[2] = test system: HIV-1 Bal (subtype B, R5); format: cell-based; settings: Bal (subtype B, R5)
Description: as §2

rhesus monkey IgG = experiment: Isothermal titration calorimetry (ITC); format: binding; settings: 300 μM peptide injected into 30 μM rhesus monkey IgG, PBS, 25 °C
Description: ITC assay was performed with an ITC microcalorimeter instrument (NANO ITC, TA Instruments, Lindon, UT) as described previously. In brief, 300 μM peptides were dissolved in PBS and injected into the chamber containing 30 μM of rhesus monkey IgG. The experiments were carried out at 25 °C. The time between injections was 300 s, and the stirring speed was 300 rpm. The heats of dilution were determined in control experiments by injecting peptides into PBS and then subtracting from the heats produced in the corresponding peptide-IgG binding experiments. Data acquisition and analysis were performed using the Origin software, and the best fitting curves were generated with GraphPad Prism.

M7 cells = experiment: Cytotoxicity assay (CCK-8); format: cell-based; settings: up to 5 μM, 48 h, triplicate
Description: (§1) The potential cytotoxicity of peptides on MT-2 and M7 cells was measured by using the Cell Counting Kit-8 according to the manufacturer’s instructions (CCK-8, Dojindo Laboratories, Kumamoto, Japan). Briefly, 100 μL of a peptide at graded concentrations were added to equal volumes of cells (10^4 cells/well) in a 96-well plate. Cell viability was evaluated using the CCK-8 kit after incubation at 37 °C for 2 days. Incubation with CCK-8 reagents at 37 °C for another 4 h, the absorbance at 450 nm was measured with an ELISA reader, and the percentage of cytotoxicity was calculated.

MT-2 cells = experiment: Cytotoxicity assay (CCK-8); format: cell-based; settings: up to 5 μM, 48 h, CCK-8; triplicate
Description: as §1

[3] = test system: H9/HIV-1IIIB target cells with PBMC effector cells; experiment: ADCC assay, 10E8-mediated lysis; format: cell-based, human; settings: peptide up to 20 μM added to 10E8
Description: H9/HIV-1IIIB cells expressing HIV-1 Env (2.5 × 10^4 cells) as the target cells were seeded into a 96-well plate (25 μL/well), and the mixture of a serially diluted inhibitors and 10E8 (1.5 μg/mL) was added to the culture plate. PBMC (AllCells) as effector cells (2.5 × 10^4 cells in 25 μL) were cocultured with the mixture-treated target cells at 37 °C overnight, and the […] activity was measured using the CytoTox-ONE Homogeneous Membrane Integrity Assay (Promega).

HIV-1 IIIB = experiment: Inhibitors alone or in combination against HIV-1 IIIB; format: cell-based
Description: The samples were serially diluted and tested for their inhibitory activity on HIV-1 infection as described above. The data were analyzed for synergistic effect by calculating the combination index (CI) with the CalcuSyn software. CI values of <0.95 and >1.05 indicate synergy and antagonism, respectively. CI <0.1, 0.1–0.3, 0.3–0.7, 0.7–0.85, and 0.85–0.90 indicate very strong synergism, strong synergism, synergism, moderate synergism, and slight synergism, respectively. Fold of dose reduction was calculated with the ratio of concentrations of inhibitor testing alone and in combination.

[4] = set-up: method as in PMID 16174446; settings: reported value; cited from earlier work

Compound: CC[C@H](C)[C@H](NC(=O)[C@H](CC(C)C)NC(=O)[C@H](CCC(=O)O)NC(=O)[C@H](CCC(=O)O)NC(=O)[C@@H](NC(=O)[C@H](CCCCN)NC(=O)[C@H](CCCCN)NC(=O)[C@@H](NC(=O)[C@H](Cc1ccc(O)cc1)NC(=O)[C@H](CCC(=O)O)NC(=O)[C@H](CCC(=O)O)NC(=O)[C@@H](NC(=O)[C@H](CCCCN)NC(=O)[C@H](CCCCN)NC(=O)[C@H](CC(=O)O)NC(=O)[C@H](Cc1c[nH]c2ccccc12)NC(=O)[C@H](CCC(=O)O)NC(=O)[C@H](CCC(=O)O)NC(=O)[C@H](Cc1c[nH]c2ccccc12)NC(=O)[C@@H](NC(=O)[C@@H](N)CCSC)[C@@H](C)O)[C@@H](C)CC)[C@@H](C)O)[C@@H](C)CC)C(=O)N[C@@H](CCCCN)C(=O)N[C@@H](CCCCN)C(=O)N[C@@H](CO)C(=O)N[C@@H](CC(=O)O)C(=O)N[C@H]1CSSC[C@@H](C(=O)N[C@H](C(=O)O)[C@@H](C)O)NC(=O)[C@H](Cc2c[nH]c3ccccc23)NC(=O)[C@H](C(C)C)NC(=O)[C@H](CC(C)C)NC(=O)[C@H](CCC(=O)O)NC(=O)CNC(=O)[C@H](CC(C)C)NC(=O)[C@H](Cc2c[nH]cn2)NC(=O)[C@H](Cc2c[nH]c3ccccc23)NC(=O)[C@H](C)NC1=O [CP24-IBP] (H-MTWEEWDKKIEEYTKKIEELIKKSDCAWHLGELVWCT-OH; disulfide 26-36)
- IC50 [1]: 41.3 nM
- IC50 [2]: 11 nM

Compound: CC(C)C[C@@H]1NC(=O)[C@H](Cc2c[nH]cn2)NC(=O)[C@H](Cc2c[nH]c3ccccc23)NC(=O)[C@H](C)NC(=O)[C@@H](NC(=O)[C@@H](N)CC(=O)O)CSSC[C@@H](C(=O)N[C@H](C(=O)O)[C@@H](C)O)NC(=O)[C@H](Cc2c[nH]c3ccccc23)NC(=O)[C@H](C(C)C)NC(=O)[C@H](CC(C)C)NC(=O)[C@H](CCC(=O)O)NC(=O)CNC1=O [IBP]
- Kd (rhesus monkey IgG): 2440 nM
- in vitro cytotoxicity to M7 cells (M7 cells): no in vitro cytotoxicity
- in vitro cytotoxicity to MT-2 cells (MT-2 cells): no in vitro cytotoxicity
- effect on 10E8-mediated lytic activity [3]: remained about the same

- IC50 (HIV-1 IIIB; experiment N6 / NBD556, HIV-1 IIIB, read-out: IC50 Alone): 28000 nM
- IC50 (HIV-1 IIIB; mixture N6 / NBD556, HIV-1 IIIB, read-out: IC50 In mixture): 4610 nM
Compound: CC1(C)CC(NC(=O)C(=O)Nc2ccc(Cl)cc2)CC(C)(C)N1 [NBD556]
- Dose reduction (HIV-1 IIIB; mixture N6 / NBD556, HIV-1 IIIB): 6.1 fold

Compound: enfuvirtide
- reported t1/2 [4]: 3 h
